Assay results taken from patent US11191768B2, “Histone acetyltransferase activators and uses thereof” (The Trustees of Columbia University in the City of New York, priority 2014, dated 2021).

Legend:
[1] = cited from earlier work
[2] = tested on: YAC128 mice; assay: Accelerating rotarod in the YAC128 Huntington disease model; assay type: in vivo; details: YF2 5 mg/kg i.p. daily from age 2 months
Method: HAT activator YF2 (U.S. patent application Ser. No. 13/493,490; herein incorporated by reference in its entirety) was tested in the YAC128 Huntington disease model. Animals were treated with YF2 (5 mg/kg, i.p, daily) or vehicle, starting at the age of 2 months.

SMILES	Solubility [1]	Rotarod performance of YF2-treated YAC128 mice versus WT mice ([2]; female mice, 6 months of age, vs WT+YF2 p=0.12734, vs WT+vehicle p=0.1690)	Rotarod performance of YF2-treated YAC128 mice versus WT mice ([2]; male mice, 4 month old, vs WT+YF2 p=0.1946, vs WT+vehicle p=0.0792)
CCOc1ccccc1C(=O)Nc1ccc(Cl)c(C(F)(F)F)c1 [CTB]	insoluble	–	–
CCCCCCCCCCCCCCCc1cccc(OCC)c1C(=O)Nc1ccc(Cl)c(C(F)(F)F)c1 [CTPB]	insoluble	–	–
CCOc1cccc(OCCN(C)C)c1C(=O)Nc1ccc(Cl)c(C(F)(F)F)c1 [YF2]	–	significance was lost	significance was lost
